Assay results reported in patent US4119717A, “16-S-acyl derivatives of fusidic acid” (Leo Pharmaceutical Products Ltd. A/S Lovens Kemiske Fabrik, priority 1976, dated 1978).
≈ marks a conversion by molar mass, not a printed value.

Key:
Experiment in all cases: Antibacterial activity, concentration required for 50% inhibition
Format in all cases: cell-based
[1] = system: Bacteroides fragilis Leo JA 2; conditions: LEOJA2
Source text: (§1) Now, however, it has been found, that the compounds of the present invention both in vitro and in vivo show interesting antimicrobial and pharmacokinetic properties. Thereby the compounds of the invention can be used in the treatment of bacterial infections in humans and animals.

[2] = system: Staph.aureus Leo CC 178 A; conditions: Staphylococcus aureus, LEOCC178A
Source text: as §1

[3] = system: Staph.aureus Leo CC 178 B; conditions: Staphylococcus aureus, LEOCC178B
Source text: as §1

Strep.pyogenes Leo EC = conditions: Streptococcus pyogenes
Source text: as §1

Strep.sp. Leo EG 2 = system: Strep.sp. Leo EG 2
Source text: as §1

Row | SMILES | IC50 [1] [µg/mL] | IC50 [2] [µg/mL] | IC50 [3] [µg/mL] | IC50 (Strep.pyogenes Leo EC) [µg/mL] | IC50 (Strep.sp. Leo EG 2) [µg/mL]
1 | CC(=O)S[C@H]1C[C@@]2(C)[C@@H](C[C@@H](O)[C@H]3[C@@]4(C)CC[C@@H](O)[C@@H](C)[C@@H]4CC[C@@]32C)/C1=C(\CCC=C(C)C)C(=O)O [Example 1, 16-Deacetoxy-16β-(acetylthio)fusidic acid] | 0.79 (≈ 1.48 µM) | 6.3 (≈ 11.8 µM) | 0.01 (≈ 0.0188 µM) | 0.2 (≈ 0.375 µM) | 0.2 (≈ 0.375 µM)
2 | CC(=O)S[C@H]1C[C@@]2(C)[C@@H](C[C@@H](O)[C@H]3[C@@]4(C)CC[C@@H](O)[C@@H](C)[C@@H]4CC[C@@]32C)/C1=C(\CCCC(C)C)C(=O)O [Example 3, 16-Deacetoxy-16β-acetylthio-24,25-dihydrofusidic acid] | 0.5 (≈ 0.935 µM) | 3.2 (≈ 5.98 µM) | 0.008 (≈ 0.015 µM) | 0.16 (≈ 0.299 µM) | 0.25 (≈ 0.467 µM)
3 | CC(C)CCC/C(C(=O)O)=C1/[C@@H](SC(=O)c2ccccc2)C[C@@]2(C)[C@H]1C[C@@H](O)[C@H]1[C@@]3(C)CC[C@@H](O)[C@@H](C)[C@@H]3CC[C@@]12C [Example 4, 16-Deacetoxy-16β-benzoylthio-24,25-dihydrofusidic acid] | 1.6 (≈ 2.68 µM) | 1.6 (≈ 2.68 µM) | 0.5 (≈ 0.838 µM) | 0.2 (≈ 0.335 µM) | 0.63 (≈ 1.06 µM)
4 | CC(=O)S[C@H]1C[C@@]2(C)[C@@H](CC(=O)[C@H]3[C@@]4(C)CC[C@@H](O)[C@@H](C)[C@@H]4CC[C@@]32C)/C1=C(\CCC=C(C)C)C(=O)O [Example 7, 11-keto-16-deacetoxy-16β-(acetylthio)fusidic acid] | 2 (≈ 3.77 µM) | 20 (≈ 37.7 µM) | 0.02 (≈ 0.0377 µM) | 1 (≈ 1.88 µM) | 2 (≈ 3.77 µM)
5 | CC(=O)S[C@H]1C[C@@]2(C)[C@@H](CC(=O)[C@H]3[C@@]4(C)CC[C@@H](O)[C@@H](C)[C@@H]4CC[C@@]32C)/C1=C(\CCCC(C)C)C(=O)O [Example 8] | 2 (≈ 3.75 µM) | 16 (≈ 30 µM) | 0.02 (≈ 0.0375 µM) | 1 (≈ 1.88 µM) | 2 (≈ 3.75 µM)
6 | CC(=O)S[C@H]1C[C@@]2(C)[C@@H](C[C@@H](O)[C@H]3[C@@]4(C)CC[C@H](Br)[C@@H](C)[C@@H]4CC[C@@]32C)/C1=C(\CCC=C(C)C)C(=O)O [Example 21, 3-Deoxy-3β-bromo-16-deacetoxy-16β-(acetylthio)fusidic acid] | 3.2 (≈ 5.37 µM) | 4 (≈ 6.71 µM) | 0.13 (≈ 0.218 µM) | 0.32 (≈ 0.537 µM) | 1 (≈ 1.68 µM)
7 | CC(=O)S[C@H]1C[C@@]2(C)[C@@H](C[C@@H](O)[C@H]3[C@@]4(C)CC[C@H](Br)[C@@H](C)[C@@H]4CC[C@@]32C)/C1=C(\CCCC(C)C)C(=O)O [Example 22, 3-deoxy-3β-bromo-16-deacetoxy-16β-acetylthio-24,25-dihydrofusidic acid] | 2 (≈ 3.35 µM) | 1.6 (≈ 2.68 µM) | 0.079 (≈ 0.132 µM) | 0.79 (≈ 1.32 µM) | 1.6 (≈ 2.68 µM)
8 | CC(=O)S[C@H]1C[C@@]2(C)[C@@H](C[C@@H](O)[C@H]3[C@@]4(C)CC[C@H](N=[N+]=[N-])[C@@H](C)[C@@H]4CC[C@@]32C)/C1=C(\CCCC(C)C)C(=O)O [Example 28] | 1.6 (≈ 2.86 µM) | 2 (≈ 3.57 µM) | 1.6 (≈ 2.86 µM) | 0.63 (≈ 1.13 µM) | 0.63 (≈ 1.13 µM)
9 | CC(=O)S[C@H]1C[C@@]2(C)[C@@H](C[C@@H](O)[C@H]3[C@@]4(C)CC[C@H](Cl)[C@@H](C)[C@@H]4CC[C@@]32C)/C1=C(\CCC=C(C)C)C(=O)O [Example 29] | 1.3 (≈ 2.36 µM) | 2 (≈ 3.63 µM) | 0.5 (≈ 0.907 µM) | 0.63 (≈ 1.14 µM) | 1.6 (≈ 2.9 µM)
10 | CC(=O)S[C@H]1C[C@@]2(C)[C@@H](C[C@@H](O)[C@H]3[C@@]4(C)CC[C@@H](N=[N+]=[N-])[C@@H](C)[C@@H]4CC[C@@]32C)/C1=C(\CCCC(C)C)C(=O)O [Example 36, 3-Deoxy-3α-azido-16-deacetoxy-16β-acetylthio-24,25-dihydrofusidic acid] | 5 (≈ 8.93 µM) | 5 (≈ 8.93 µM) | 0.063 (≈ 0.113 µM) | 0.4 (≈ 0.715 µM) | 2 (≈ 3.57 µM)
11 | CC(=O)O[C@H]1C[C@@]2(C)[C@@H](C[C@@H](O)[C@H]3[C@@]4(C)CC[C@@H](O)[C@@H](C)[C@@H]4CC[C@@]32C)/C1=C(\CCC=C(C)C)C(=O)O [Fusidic acid] | 1.6 (≈ 3.1 µM) | 16 (≈ 31 µM) | 0.025 (≈ 0.0484 µM) | 0.63 (≈ 1.22 µM) | 1.6 (≈ 3.1 µM)
